# How the values were obtained:
# [1] = target: T1, acyl-CoA: cholesterol acyltransferase (ACAT) (Oryctolagus cuniculus, UniProt G1SFD9); assay: In vitro inhibition of ACAT (acylation of cholesterol by oleic acid) in rabbit intestinal microsomes; format: biochemical; conditions: radiolabeled oleic acid
# T1 construct: tissue preparation containing rabbit intestinal microsomes; from tissue; host or cells: rabbit intestinal microsomes
# T1 sequence (G1SFD9 1-524): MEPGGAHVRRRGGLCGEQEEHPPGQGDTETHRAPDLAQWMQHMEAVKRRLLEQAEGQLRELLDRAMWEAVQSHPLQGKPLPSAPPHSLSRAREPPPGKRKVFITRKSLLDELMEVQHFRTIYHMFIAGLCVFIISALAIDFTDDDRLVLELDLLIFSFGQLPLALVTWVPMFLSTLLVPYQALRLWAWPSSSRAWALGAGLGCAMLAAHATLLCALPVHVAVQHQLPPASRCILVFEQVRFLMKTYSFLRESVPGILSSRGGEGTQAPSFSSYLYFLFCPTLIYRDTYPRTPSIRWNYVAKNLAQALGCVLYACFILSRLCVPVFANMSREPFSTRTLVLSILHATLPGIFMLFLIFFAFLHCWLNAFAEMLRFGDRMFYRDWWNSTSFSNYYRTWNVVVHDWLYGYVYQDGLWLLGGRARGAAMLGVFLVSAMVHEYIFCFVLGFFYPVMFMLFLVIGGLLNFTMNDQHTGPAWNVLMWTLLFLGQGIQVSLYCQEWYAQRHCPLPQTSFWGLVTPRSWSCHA
# Protocol: The ability of representative compounds of the present invention to inhibit ACAT was measured using an in vitro test more fully described in Field, F. J. and Salone, R. G., Biochemica et Biophysica, 712:557-570 (1982). The test assesses the ability of a test compound to inhibit the acylation of cholesterol by oleic acid by measuring the amount of radiolabeled cholesterol […] formed from radiolabeled oleic acid in a tissue preparation containing rabbit intestinal microsomes. The data appear in Table 1 where they are expressed in IC50 values; i.e., the concentration of test compound required to inhibit 50% expression of the enzyme.
# [2] = In vivo screen designated APCC, cholesterol in rats fed PCC diet with cholic acid; set-up: species or system male Sprague-Dawley rats; conditions: blood cholesterol; PCC diet with 1% or 0.5% cholic acid; dosed at 4 PM, sacrificed at 8 AM; dose not stated
# Source text: In one in vivo screen designated APCC, male Sprague-Dawley rats (200 to 225 g) were randomly divided into treatment groups and dosed at 4 PM with either vehicle (CMC/Tween) or suspensions of compounds in vehicle. The normal, chow diet was then replaced with the PCC diet with either 1% or 0.5% cholic acid, as indicated. The rats consumed this diet ad libitum during the night and were sacrificed at 8 AM to obtain blood samples for cholesterol analysis using standard procedures. Statistical differences between mean cholesterol values for the same vehicle were determined using analysis of variance followed by Fisher's least significant test.
Compound,IC50 [1],% Change [2]
"COc1ccc(C(=O)NC2(CNC(=O)Nc3c(C(C)C)cccc3C(C)C)CCCC2)cc1 [Example 5, N-[1-[[[[[2,6-bis(1-methylethyl)phenyl]amino]carbonyl]amino]methyl]cyclopentyl]-4-methoxybenzamide]",0.51 µM,
"COc1ccc(CN[C@H](CNC(=O)Nc2c(C(C)C)cccc2C(C)C)C(C)C)cc1 [Example 8, (S)-(-)-N[2,6-Bis(1-methylethyl)phenyl]-N'-[2-[[(4-methoxyphenyl]methyl]amino]-3-methylbutyl]urea]",0.085 µM,-17%
"COc1ccc(CN[C@H](CNC(=O)Nc2c(C(C)C)cccc2C(C)C)Cc2ccccc2)cc1 [Example 9, (S)-(-)-N-[2,6-Bis(1-methylethyl)phenyl]-N'-[2-[[(4-methoxyphenyl)methyl]amino]-3-phenylpropyl]urea]",,-33%
"COc1ccc(CN[C@@H](CCSC)CNC(=O)Nc2c(C(C)C)cccc2C(C)C)cc1 [Example 7, (S)-(-)-N-[2,6-Bis(1-methylethyl)phenyl]-N'-[2-[[(4-methoxyphenyl)methyl]amino]-4-(methylthio)butyl]urea]",,-31%
CCCC(CCC)(CNC(=O)Nc1c(C(C)C)cccc1C(C)C)NC(=O)c1ccc(OC)cc1 [Example 4],0.096 µM,
"COc1ccc(CN[C@H](CNC(=O)Nc2c(C(C)C)cccc2C(C)C)CC(C)C)cc1 [Example 6, (S)-(-)-N-[2,6-bis(1-methylethyl)phenyl]-N'-[2-[[(4-methoxyphenyl)methyl]amino]-4-methyl-pentyl]urea]",0.057 µM,-25%
CC(C)c1cccc(C(C)C)c1NC(=O)NC[C@H](Cc1ccccc1)NCc1ccccc1O [Example 10],,-46%
